Like-named read-outs stand apart in the source and are kept apart here.
What was measured:
[1] = tested on: live pests; test: Condition of fumigated barge cargo on arrival at destination port (residues, live pests); type: in vivo; conditions: approximately two weeks later
Description: (§1) A fumigation apparatus, such as the fumigation apparatus 10 (FIGS. 1A-1C), was provided in a barge hatch at a source shipping port that was subsequently loaded with 2,700 metric tons of corn kernels (cargo). A dose of 2,600 g PH3 was injected (approximately 1.03 g PH3/ton cargo) without the use of a turbine (e.g., fan). A PH3 sensor was then used to measure the air quality immediately above the surface of the cargo and the gas concentration the approximately 1 meter below the surface of the cargo (using a probe) at predetermined time intervals.
as §1, with “On the same day as Experiment 1, a fumigation” for “A fumigation”, “at the” for “at a”, “of 2,200” for “of 2,600”, “(approximately 0.814” for “(approximately 1.03”, “cargo) with” for “cargo) without the use of”, “(e.g., fan) to push the PH3. The” for “(e.g., fan). A”
The day following Experiment 1 and Experiment 2, a fumigation apparatus, such as the fumigation apparatus 10 (FIGS. 1A-1C), was provided in a barge hatch at the source shipping port that was subsequently loaded with 2,700 metric tons of corn kernels (cargo). A dose of 1,700 g PH3 was injected (approximately […]) without auxiliary turbine and only with the air flow of the phosphine mixture delivery equipment itself (e.g., approximately 200 m^3/hour). The PH3 sensor was then used to measure the air quality immediately above the surface of the cargo and the gas concentration the approximately 1 meter below the surface of the cargo (using a probe) at predetermined time intervals.
The same day as Experiment 3, and eight days thereafter, nine barges were loaded and fumigated in a similar manner as in Experiment 3 to test repeatability.

[2] = tested on: Amyelois transitella; conditions: exposed for 24 Hours at 26.7° C. (80° F.), cited from earlier work
[3] = tested on: Orzaephilus surinamensis; conditions: exposed for 24 Hours at 26.7° C. (80° F.), cited from earlier work
[4] = tested on: Tribolium castaneum; conditions: exposed for 24 Hours at 26.7° C. (80° F.), cited from earlier work
[5] = tested on: Tribolium confusum; conditions: exposed for 24 Hours at 26.7° C. (80° F.), cited from earlier work
[6] = tested on: Lasioderma serricorne; conditions: exposed for 24 Hours at 26.7° C. (80° F.), cited from earlier work
[7] = tested on: Carpophilus hemipterus; conditions: exposed for 24 Hours at 26.7° C. (80° F.), cited from earlier work
[8] = tested on: Plodia interpunctella; conditions: exposed for 24 Hours at 26.7° C. (80° F.), cited from earlier work

P [PH3, phosphine gas]
83-100%: Percent (%) Mortality eggs ([5]; 500 ppm PH3)
97-100%: Percent (%) Mortality larvae ([3]; 250 ppm PH3)
94-100%: Percent (%) Mortality pupae ([5]; 1000 ppm PH3)
59-80%: Percent (%) Mortality eggs ([5]; 250 ppm PH3)
20-80%: Percent (%) Mortality eggs ([2]; 500 ppm PH3)
70-100%: Percent (%) Mortality eggs ([2]; 1000 ppm PH3)
90-100%: Percent (%) Mortality eggs ([4]; 250 ppm PH3) | Percent (%) Mortality eggs ([8]; 500 ppm PH3)
89-95%: Percent (%) Mortality pupae ([5]; 250 ppm PH3)
100%: Percent (%) Mortality adults ([2]; 250 ppm PH3) | Percent (%) Mortality larvae ([2]; 250 ppm PH3) | Percent (%) Mortality pupae ([2]; 250 ppm PH3) | Percent (%) Mortality adults ([2]; 500 ppm PH3) | Percent (%) Mortality larvae ([2]; 500 ppm PH3) | Percent (%) Mortality pupae ([2]; 500 ppm PH3) | Percent (%) Mortality adults ([2]; 1000 ppm PH3) | Percent (%) Mortality larvae ([2]; 1000 ppm PH3) | Percent (%) Mortality pupae ([2]; 1000 ppm PH3) | Percent (%) Mortality adults ([3]; 250 ppm PH3) | Percent (%) Mortality eggs ([3]; 250 ppm PH3) | Percent (%) Mortality pupae ([3]; 250 ppm PH3) | Percent (%) Mortality adults ([3]; 500 ppm PH3) | Percent (%) Mortality eggs ([3]; 500 ppm PH3) | Percent (%) Mortality larvae ([3]; 500 ppm PH3) | Percent (%) Mortality pupae ([3]; 500 ppm PH3) | Percent (%) Mortality adults ([3]; 1000 ppm PH3) | Percent (%) Mortality eggs ([3]; 1000 ppm PH3) | Percent (%) Mortality larvae ([3]; 1000 ppm PH3) | Percent (%) Mortality pupae ([3]; 1000 ppm PH3) | Percent (%) Mortality adults ([4]; 250 ppm PH3) | Percent (%) Mortality larvae ([4]; 250 ppm PH3) | Percent (%) Mortality pupae ([4]; 250 ppm PH3) | Percent (%) Mortality adults ([4]; 500 ppm PH3) | Percent (%) Mortality eggs ([4]; 500 ppm PH3) | Percent (%) Mortality larvae ([4]; 500 ppm PH3) | Percent (%) Mortality pupae ([4]; 500 ppm PH3) | Percent (%) Mortality adults ([4]; 1000 ppm PH3) | Percent (%) Mortality eggs ([4]; 1000 ppm PH3) | Percent (%) Mortality larvae ([4]; 1000 ppm PH3) | Percent (%) Mortality pupae ([4]; 1000 ppm PH3) | Percent (%) Mortality adults ([5]; 250 ppm PH3) | Percent (%) Mortality larvae ([5]; 250 ppm PH3) | Percent (%) Mortality adults ([5]; 500 ppm PH3) | Percent (%) Mortality larvae ([5]; 500 ppm PH3) | Percent (%) Mortality adults ([5]; 1000 ppm PH3) | Percent (%) Mortality eggs ([5]; 1000 ppm PH3) | Percent (%) Mortality larvae ([5]; 1000 ppm PH3) | Percent (%) Mortality adults ([6]; 250 ppm PH3) | Percent (%) Mortality larvae ([6]; 250 ppm PH3) | Percent (%) Mortality pupae ([6]; 250 ppm PH3) | Percent (%) Mortality adults ([6]; 500 ppm PH3) | Percent (%) Mortality larvae ([6]; 500 ppm PH3) | Percent (%) Mortality pupae ([6]; 500 ppm PH3) | Percent (%) Mortality adults ([6]; 1000 ppm PH3) | Percent (%) Mortality larvae ([6]; 1000 ppm PH3) | Percent (%) Mortality pupae ([6]; 1000 ppm PH3) | Percent (%) Mortality adults ([7]; 250 ppm PH3) | Percent (%) Mortality eggs ([7]; 250 ppm PH3) | Percent (%) Mortality larvae ([7]; 250 ppm PH3) | Percent (%) Mortality pupae ([7]; 250 ppm PH3) | Percent (%) Mortality adults ([7]; 500 ppm PH3) | Percent (%) Mortality eggs ([7]; 500 ppm PH3) | Percent (%) Mortality larvae ([7]; 500 ppm PH3) | Percent (%) Mortality pupae ([7]; 500 ppm PH3) | Percent (%) Mortality adults ([7]; 1000 ppm PH3) | Percent (%) Mortality eggs ([7]; 1000 ppm PH3) | Percent (%) Mortality larvae ([7]; 1000 ppm PH3) | Percent (%) Mortality pupae ([7]; 1000 ppm PH3) | Percent (%) Mortality adults ([8]; 250 ppm PH3) | Percent (%) Mortality pupae ([8]; 250 ppm PH3) | Percent (%) Mortality adults ([8]; 500 ppm PH3) | Percent (%) Mortality pupae ([8]; 500 ppm PH3) | Percent (%) Mortality adults ([8]; 1000 ppm PH3) | Percent (%) Mortality larvae ([8]; 1000 ppm PH3) | Percent (%) Mortality pupae ([8]; 1000 ppm PH3)
97-99%: Percent (%) Mortality larvae ([8]; 500 ppm PH3)
0-78%: Percent (%) Mortality eggs ([2]; 250 ppm PH3)
96-100%: Percent (%) Mortality eggs ([6]; 1000 ppm PH3)
89-96%: Percent (%) Mortality eggs ([8]; 250 ppm PH3)
87-94%: Percent (%) Mortality eggs ([6]; 250 ppm PH3)
free of residues and live pests: cargo condition on arrival (residues and live pests) ([1]; Experiment 1: 2,600 g PH3 in 2,700 metric tons corn kernels, without turbine) | cargo condition on arrival (residues and live pests) ([1]; Experiment 2: 2,200 g PH3 in 2,700 metric tons corn kernels, with a turbine) | cargo condition on arrival (residues and live pests) ([1]; Experiment 3: 1,700 g PH3 in 2,700 metric tons corn kernels, without auxiliary turbine) | cargo condition on arrival (residues and live pests) ([1]; Experiment 4: nine additional barges fumigated as in Experiment 3)
89-98%: Percent (%) Mortality pupae ([5]; 500 ppm PH3)
87-96%: Percent (%) Mortality eggs ([6]; 500 ppm PH3)
95-100%: Percent (%) Mortality larvae ([8]; 250 ppm PH3) | Percent (%) Mortality eggs ([8]; 1000 ppm PH3)

Reference: patent US20160113265A1, “[…] AND METHODS THEREOF” (Lanodir USA, Inc., priority 2014, published 2016)
